Among the data in patent publication US20080125424A1, “Derivatives of urea and related diamines, methods for their manufacture, and uses therefor” (priority 2006, published 2008) are EC50 values, retold here.

Usually EC50 stands for the concentration needed to bring the measured effect to its halfway point. Low values mean an effect from little substance, high ones a need for much substance.

The target in the assay is T1, human parathyroid cell Ca2+ receptor (hPCaR) (Homo sapiens, UniProt P41180).
T1 construct: expressed in transfected cells
T1 sequence (P41180 20-1078): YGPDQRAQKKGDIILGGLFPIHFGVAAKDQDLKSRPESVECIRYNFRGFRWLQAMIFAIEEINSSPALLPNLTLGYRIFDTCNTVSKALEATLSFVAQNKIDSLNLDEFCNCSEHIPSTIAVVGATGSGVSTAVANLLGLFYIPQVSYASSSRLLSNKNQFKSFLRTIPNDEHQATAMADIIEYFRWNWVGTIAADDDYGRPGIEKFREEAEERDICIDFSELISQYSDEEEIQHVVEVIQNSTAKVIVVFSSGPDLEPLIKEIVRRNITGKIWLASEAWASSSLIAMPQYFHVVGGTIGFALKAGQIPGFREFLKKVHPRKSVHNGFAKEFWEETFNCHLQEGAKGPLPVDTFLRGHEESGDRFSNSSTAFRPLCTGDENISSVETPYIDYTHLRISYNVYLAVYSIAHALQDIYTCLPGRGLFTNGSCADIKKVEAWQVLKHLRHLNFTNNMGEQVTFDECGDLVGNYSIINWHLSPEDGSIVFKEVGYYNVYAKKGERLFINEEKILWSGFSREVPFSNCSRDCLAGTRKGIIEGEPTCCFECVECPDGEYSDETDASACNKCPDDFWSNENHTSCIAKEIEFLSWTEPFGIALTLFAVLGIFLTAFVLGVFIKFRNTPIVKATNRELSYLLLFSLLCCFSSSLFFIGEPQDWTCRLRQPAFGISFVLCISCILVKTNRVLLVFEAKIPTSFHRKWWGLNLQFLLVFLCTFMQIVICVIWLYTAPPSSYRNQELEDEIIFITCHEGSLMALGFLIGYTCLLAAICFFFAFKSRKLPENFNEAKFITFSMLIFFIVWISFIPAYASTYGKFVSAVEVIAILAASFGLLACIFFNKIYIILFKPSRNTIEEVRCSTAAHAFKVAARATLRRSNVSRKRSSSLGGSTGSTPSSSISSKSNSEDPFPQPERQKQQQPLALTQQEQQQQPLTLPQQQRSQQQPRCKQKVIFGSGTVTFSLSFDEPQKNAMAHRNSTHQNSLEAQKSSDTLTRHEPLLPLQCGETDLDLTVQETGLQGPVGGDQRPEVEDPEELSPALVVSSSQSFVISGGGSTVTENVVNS
As to the kind of experiment: [Ca2+]i fluorescence assay in HEK 293 4.0-7 cells expressing hPCaR. To be noted: buffer with 1 mM CaCl2. In kind it is cell-based. Here is the method:
The activities of the compounds of the present invention on calcium receptors were measured. In one embodiment, the measurement was performed in accordance with the method described in Example 4 of Nemeth et al., PCT/US95/13704 (International Publication No. WO96/12697) herein incorporated by reference.
A 4.0-kb NotI-HindIII fragment of the human parathyroid cell Ca^2+ receptor (hPCaR) cDNA was subcloned into the mammalian expression vector pCEP4 (Invitrogen) containing the hygromycin-resistant gene as a selectable marker. This plasmid was transfected into HEK 293 cells by calcium phosphate precipitation. Transfected cells were grown in Dulbecco's modified Eagle's medium containing 10% fetal bovine serum and hygromycin (200 μg/mL). Hygromycin-resistant colonies were subcloned and assayed for hPCaR mRNA by solution hybridization using a ^32P-labeled RNA probe complementary to the (4.0 kb) hPCaR sequence (Garrett, et al., J. Biol. Chem. 270, 12919-12925 (1995)). Clone 7 was used to assess the effects of compounds on [Ca^2+]i. This stably transfected cell line was termed HEK 293 4.0-7. For measurements of [Ca^2+]i, the cells were recovered from tissue culture flasks by brief treatment with Versene (Invitrogen; Containing 0.2 g/L EDTA.4Na in phosphate-buffered saline) and then seeded in collagen coated 384-well plates (BD Biosciences) at 20K cells per well in the growth media (same as above). Cells were grown in 37c TC incubator overnight. Then, the media was discarded and cells were loaded with 1× dye from Ca^2+ Assay Kit I (BD Biosciences) in parathyroid cell buffer (126 mM NaCl, 4 mM KCl, 1 mM MgSO4, 0.7 mM K2HPO4/KH2PO4, 20 mM HEPES.NaOH (pH 7.45)) containing 0.5% BSA and 1 mM CaCl2. Cells were loaded at room temperature for 90 minutes. Each test compound was added to the cells and the fluorescence was recorded by using excitation and emission wavelengths of 485 and 530 nm, respectively.
On to `O=C(CCCN(CCC(c1ccccc1)c1ccccc1)C(=O)Nc1nc2ccccc2s1)NCc1ccccc1` [Example 86, 3-(benzo[d]thiazol-2-yl)-1-(4-(benzylamino)-4-oxobutyl)-1-(3,3-diphenylpropyl)urea], for which the EC50 was < 100 nM.

As to `O=C(CCN(CCC(c1ccccc1)c1ccccc1)C(=O)Nc1nc(-c2ccccc2)cs1)N[C@@H]1CCCNC1` [Example 102, (R)-1-(3,3-diphenylpropyl)-1-(3-oxo-3-(piperidin-3-ylamino)propyl)-3-(4-phenylthiazol-2-yl)urea], the EC50 lay in the range of 100 to 1000 nM.

`O=C(CCCN(CCC(c1ccccc1)c1ccccc1)C(=O)Nc1nc2ccccc2s1)NC1CCCCC1` [Example 97, 3-(benzo[d]thiazol-2-yl)-1-(4-(cyclohexylamino)-4-oxobutyl)-1-(3,3-diphenylpropyl)urea] showed a concentration for a half-maximal effect (EC50) of 100 to 1000 nM.

For the compound `CN(C)C(=O)CCN(CCC(c1ccccc1)c1ccccc1)C(=O)Nc1nc2ccccc2s1` [Example 107, 3-(benzo[d]thiazol-2-yl)-1-(3-(dimethylamino)-3-oxopropyl)-1-(3,3-diphenylpropyl)urea], the EC50 lay in the range of 100 to 1000 nM.

As for `CS(=O)(=O)Nc1ccc(-c2nc(NC(=O)N(CCN)CCC(c3ccccc3)c3ccccc3)sc2Cl)cc1` [Example 135, 1-(2-aminoethyl)-3-(5-chloro-4-(4-(methylsulfonamido)phenyl)thiazol-2-yl)-1-(3,3-diphenylpropyl)urea], the concentration giving a half-maximal response (EC50) was < 100 nM.

With `CCCS(=O)(=O)NCCN(CCC(c1ccccc1)c1ccccc1)C(=O)Nc1nc2ccccc2s1` [Example 168, Propane-1-sulfonic acid {2-[3-benzothiazol-2-yl-1-(3,3-diphenyl-propyl)-ureido]-ethyl}-amide], the EC50 was 1000 to 5000 nM.

`CC(C)(C)OC(=O)N1CCN(C(=O)CCCN(CCC(c2ccccc2)c2ccccc2)C(=O)Nc2nc3ccccc3s2)CC1` [Example 95, tert-butyl 4-(4-(3-(benzo[d]thiazol-2-yl)-1-(3,3-diphenylpropyl)ureido)butanoyl)piperazine-1-carboxylate] gave an EC50 of 100 to 1000 nM.

As for `CN(C)C(=O)N1CCN(C(=O)CCCN(CCC(c2ccccc2)c2ccccc2)C(=O)Nc2nc3ccccc3s2)CC1` [Example 87, 3-(benzo[d]thiazol-2-yl)-1-(4-(4-(dimethylcarbamoyl)piperazin-1-yl)-4-oxobutyl)-1-(3,3-diphenylpropyl)urea], the 50% effective concentration (EC50) is < 100 nM.

For the compound `CS(=O)(=O)Nc1ccc(-c2nc(NC(=O)N(CCNC(=O)C3CCCNC3)CCC(c3ccccc3)c3ccccc3)sc2Cl)cc1` (stereo not drawn) [Example 131, 3-(5-chloro-4-(4-(methylsulfonamido)phenyl)thiazol-2-yl)-1-(3,3-diphenylpropyl)-1-(2-(piperidine-3-carboxamido)ethyl)urea], the EC50 is < 100 nM.

`NC(=O)CCCN(CCC(c1ccccc1)c1ccccc1)C(=O)Nc1nc2ccccc2s1` [Example 80, 1-(4-amino-4-oxobutyl)-3-(benzo[d]thiazol-2-yl)-1-(3,3-diphenylpropyl)urea]: the EC50 is < 100 nM.

With `O=C(NCCN(CCC(c1ccccc1)c1ccccc1)C(=O)Nc1nc2ccccc2s1)C1CCNCC1` [Example 166, Piperidine-4-carboxylic acid {2-[3-benzothiazol-2-yl-1-(3,3-diphenyl-propyl)-ureido]-ethyl}-amide], the EC50 is < 100 nM.

For the compound `O=C(CCN(CCC(c1ccccc1)c1ccccc1)C(=O)Nc1nc2ccccc2s1)NCc1ccccc1` [Example 117, 3-(benzo[d]thiazol-2-yl)-1-(3-(benzylamino)-3-oxopropyl)-1-(3,3-diphenylpropyl)urea], the EC50 lay within 100 to 1000 nM.

For `CS(=O)(=O)Nc1ccc(-c2csc(NC(=O)N(CCC(=O)O)CCC(c3ccccc3)c3ccccc3)n2)cc1` [Example 113, 3-(1-(3,3-diphenylpropyl)-3-(4-(4-(methylsulfonamido)phenyl)thiazol-2-yl)ureido)propanoic acid], the half-maximal effective concentration (EC50) was in the range of 100 to 1000 nM.

Consider `CS(=O)(=O)Nc1ccc(-c2csc(NC(=O)N(CCCC(N)=O)CCC(c3ccccc3)c3ccccc3)n2)cc1` [Example 68, 1-(4-amino-4-oxobutyl)-1-(3,3-diphenylpropyl)-3-(4-(4-(methylsulfonamido)phenyl)thiazol-2-yl)urea], for which the concentration for a half-maximal effect (EC50) is < 100 nM.

`CN(CCN(CCC(c1ccccc1)c1ccccc1)C(=O)Nc1nc(-c2ccccc2)cs1)C1CCCCC1` [Example 164, 1-[2-(Cyclohexyl-methyl-amino)-ethyl]-1-(3,3-diphenyl-propyl)-3-(4-phenyl-thiazol-2-yl)-urea]: the EC50 was in the range of 100 to 1000 nM.

Turning to `CCOC(=O)CNCCN(CCC(c1ccccc1)c1ccccc1)C(=O)Nc1nc2ccccc2s1` [Example 151, {2-[3-Benzothiazol-2-yl-1-(3,3-diphenyl-propyl)-ureido]-ethylamino}-acetic acid ethyl ester], the EC50 was in the range of 100 to 1000 nM.

Regarding `O=C(Nc1nc2ccccc2s1)N(CCNC1CCSCC1)CCC(c1ccccc1)c1ccccc1` [Example 155, 3-Benzothiazol-2-yl-1-(3,3-diphenyl-propyl)-1-[2-(tetrahydro-thiopyran-4-ylamino)ethyl]-urea], the EC50 was 1000 to 5000 nM.

`CS(=O)(=O)Nc1ccc(-c2nc(NC(=O)N(CCO)CCC(c3ccccc3)c3ccccc3)sc2Cl)cc1` [Example 133, 3-(5-chloro-4-(4-(methylsulfonamido)phenyl)thiazol-2-yl)-1-(3,3-diphenylpropyl)-1-(2-hydroxyethyl)urea]: the half-maximal effective concentration (EC50) was < 100 nM.

For `O=C(O)CCN(CCC(c1ccccc1)c1ccccc1)C(=O)Nc1nc(-c2ccccc2)c(Cl)s1` [Example 121, 3-(3-(5-chloro-4-phenylthiazol-2-yl)-1-(3,3-diphenylpropyl)ureido)propanoic acid], the EC50 lay within 1000 to 5000 nM.

In the case of `CCNC(=O)CCCN(CCC(c1ccccc1)c1ccccc1)C(=O)Nc1nc2ccccc2s1` [Example 85, 3-(benzo[d]thiazol-2-yl)-1-(3,3-diphenylpropyl)-1-(4-(ethylamino)-4-oxobutyl)urea], the EC50 is < 100 nM.

Turning to `O=C1CC[C@@H](NCCN(CCC(c2ccccc2)c2ccccc2)C(=O)Nc2nc3ccccc3s2)CN1` [Example 144, (R)-3-(benzo[d]thiazol-2-yl)-1-(3,3-diphenylpropyl)-1-(2-(6-oxopiperidin-3-ylamino)ethyl)urea], the EC50 is < 100 nM.

As for `CN(CCN(CCC(c1ccccc1)c1ccccc1)C(=O)Nc1nc2ccccc2s1)C1CCCCC1` [Example 163, 3-Benzothiazol-2-yl-1-[2-(cyclohexyl-methyl-amino)-ethyl]-1-(3,3-diphenyl-propyl)-urea], the EC50 is 100 to 1000 nM.

`COc1ccc(CNCCN(CCC(c2ccccc2)c2ccccc2)C(=O)Nc2nc3ccccc3s2)cn1` [Example 154, 3-Benzothiazol-2-yl-1-(3,3-diphenyl-propyl)-1-{2-[(6-methoxy-pyridin-3-ylmethyl)amino]-ethyl}-urea] showed an EC50 of 100 to 1000 nM.

`C[C@@H]1CNCCN1C(=O)CCCN(CCC(c1ccccc1)c1ccccc1)C(=O)Nc1nc(-c2ccccc2)cs1` [Example 91, (R)-1-(3,3-diphenylpropyl)-1-(4-(2-methylpiperazin-1-yl)-4-oxobutyl)-3-(4-phenylthiazol-2-yl)urea] came in with an EC50 of 100 to 1000 nM.
